Patent US12552747B2, “Amino acid derivative containing non-steroidal anti-inflammatory drug structure and preparation method and application thereof” (priority 2020, dated 2026)
Marks after values point to notes of the source that are not given here.

Test system: Liver cancer Bel-7402 cells
Assay: In vitro antitumor activity test (MTT), Bel-7402
Type: cell-based
Conditions: Homo sapiens; Liver cancer Bel-7402, MTT, 24 h
Procedure: (§1) 13 human tumor cell lines were selected and cultured in RPMI-1640 medium (Gibco company) containing 10% inactivated fetal bovine serum, 100 U/ml penicillin and 100 U/ml streptomycin, cultured at 37° C. in a 5% CO2 incubator, and passaged once every 2 days. Using the MTT method, cells in the logarithmic growth phase were digested with 0.25% trypsin, centrifuged at 1000 r/min for 5 min, 8×10^3 cells were added to each well, and seeded in a 96-well plate, and 180 μl of cell suspension was added to each well, and a blank was set at the same time. The 96-well plate inoculated with tumor cells was placed in a carbon dioxide incubator for 24 hours, and then 20 μl of the drug was added, and an equal volume of culture medium was added to the blank control well, and the drug was divided into 8 concentrations from 50 μg/L to 0.4 μg/L. Three duplicate wells were set for each drug concentration and placed in an incubator for 24 h. 10 μl of MTT solution (5 mg/ml) was added to each well, and the culture was continued for 4 h. The supernatant was aspirated and discarded, 100 μl of dimethyl sulfoxide (DMSO) solution was added to each well, placed on a micro shaker for 10 min, and the absorbance (A value) was measured at a wavelength of 492 nm in a microplate reader, and the inhibition rate of the drug on tumor cells was calculated according to the following formula.
(§2) In this test, the IC50 value of the compound on tumor cells was calculated by the Origin software according to the inhibition rate of the compound. AC-201 in the following table was the abbreviation of PL-AC-201, and so on.
Molecule `COc1ccc2c(c1)c(CC(=O)NC(Cc1ccc(-c3ccccc3)cc1)C(=O)NC1CC(C)(C)NC(C)(C)C1)c(C)n2C(=O)c1ccc(Cl)cc1` (centres unmarked) [PL-AC-205] has an IC50 of under 38.2 nM.

Test system: Liver cancer HepG-2 cells
Assay: In vitro antitumor activity test (MTT), HepG-2
Type: cell-based
Conditions: Homo sapiens, HepG2; Liver cancer HepG-2, MTT, 24 h
Procedure: as §1, §2
For `COc1ccc2c(c1)c(CC(=O)NC(Cc1ccc(-c3ccccc3)cc1)C(=O)NC1CC(C)(C)NC(C)(C)C1)c(C)n2C(=O)c1ccc(Cl)cc1` (centres unmarked) [PL-AC-205], the IC50 was 16.2 nM.

Test system: Liver cancer SK-hep1 cells
Assay: In vitro antitumor activity test (MTT), SK-hep1
Type: cell-based
Conditions: Homo sapiens, 24 h
Procedure: as §1, §2
For `COc1ccc2c(c1)c(CC(=O)NC(Cc1ccc(-c3ccccc3)cc1)C(=O)NC1CC(C)(C)NC(C)(C)C1)c(C)n2C(=O)c1ccc(Cl)cc1` (centres unmarked) [PL-AC-205], the IC50 was 12.4 nM.

Test system: Lung cancer A549 cells
Assay: In vitro antitumor activity test (MTT), A549
Type: cell-based
Conditions: Homo sapiens, 24 h
Procedure: as §1, §2
Work on `COc1ccc2c(c1)c(CC(=O)NC(Cc1ccc(-c3ccccc3)cc1)C(=O)NC1CC(C)(C)NC(C)(C)C1)c(C)n2C(=O)c1ccc(Cl)cc1` (centres unmarked) [PL-AC-205] yielded an IC50 of 24.5 nM.

Test system: Lung cancer H460 cells
Assay: In vitro antitumor activity test (MTT), H460
Type: cell-based
Conditions: Homo sapiens, NCI-H460, 24 h
Procedure: as §1, §2
`COc1ccc2c(c1)c(CC(=O)NC(Cc1ccc(-c3ccccc3)cc1)C(=O)NC1CC(C)(C)NC(C)(C)C1)c(C)n2C(=O)c1ccc(Cl)cc1` (centres unmarked) [PL-AC-205] gave an IC50 of 20.3 nM.

Test system: Lung cancer H1299 cells
Assay: In vitro antitumor activity test (MTT), H1299
Type: cell-based
Conditions: Homo sapiens, NCI-H1299, 24 h
Procedure: as §1, §2
Molecule `COc1ccc2c(c1)c(CC(=O)NC(Cc1ccc(-c3ccccc3)cc1)C(=O)NC1CC(C)(C)NC(C)(C)C1)c(C)n2C(=O)c1ccc(Cl)cc1` (centres unmarked) [PL-AC-205] has an IC50 of 20.3 nM.

Test system: Lung cancer H292 cells
Assay: In vitro antitumor activity test (MTT), H292
Type: cell-based
Conditions: Homo sapiens, NCI-H292, 24 h
Procedure: as §1, §2
`COc1ccc2c(c1)c(CC(=O)NC(Cc1ccc(-c3ccccc3)cc1)C(=O)NC1CC(C)(C)NC(C)(C)C1)c(C)n2C(=O)c1ccc(Cl)cc1` (centres unmarked) [PL-AC-205] gave an IC50 of 27.4 nM.

Test system: Breast cancer MCF-7 cells
Assay: In vitro antitumor activity test (MTT), MCF-7
Type: cell-based
Conditions: Homo sapiens, MCF7; Breast cancer MCF-7, MTT, 24 h
Procedure: as §1, §2
`COc1ccc2c(c1)c(CC(=O)NC(Cc1ccc(-c3ccccc3)cc1)C(=O)NC1CC(C)(C)NC(C)(C)C1)c(C)n2C(=O)c1ccc(Cl)cc1` (centres unmarked) [PL-AC-205] showed an IC50 of 23.2 nM.

Test system: Pancreatic cancer Bxpc-3 cells
Assay: In vitro antitumor activity test (MTT), Bxpc-3
Type: cell-based
Conditions: Homo sapiens; Pancreatic cancer Bxpc-3, MTT, 24 h
Procedure: as §1, §2
Molecule `COc1ccc2c(c1)c(CC(=O)NC(Cc1ccc(-c3ccccc3)cc1)C(=O)NC1CC(C)(C)NC(C)(C)C1)c(C)n2C(=O)c1ccc(Cl)cc1` (centres unmarked) [PL-AC-205] has an IC50 of 45.3 nM.

Test system: Colon cancer HT29 cells
Assay: In vitro antitumor activity test (MTT), HT29
Type: cell-based
Conditions: Homo sapiens, HT-29, 24 h
Procedure: as §1, §2
Work on `COc1ccc2c(c1)c(CC(=O)NC(Cc1ccc(-c3ccccc3)cc1)C(=O)NC1CC(C)(C)NC(C)(C)C1)c(C)n2C(=O)c1ccc(Cl)cc1` (centres unmarked) [PL-AC-205] yielded an IC50 of 37 nM.

Test system: Cervical cancer Hela cells
Assay: In vitro antitumor activity test (MTT), Hela
Type: cell-based
Conditions: Homo sapiens, 24 h
Procedure: as §1, §2
With `COc1ccc2c(c1)c(CC(=O)NC(Cc1ccc(-c3ccccc3)cc1)C(=O)NC1CC(C)(C)NC(C)(C)C1)c(C)n2C(=O)c1ccc(Cl)cc1` (centres unmarked) [PL-AC-205] the IC50 was 19.5 nM.

Test system: Melanoma B16 cells
Assay: In vitro antitumor activity test (MTT), B16
Type: cell-based
Conditions: 24 h
Procedure: as §1, §2
For `COc1ccc2c(c1)c(CC(=O)NC(Cc1ccc(-c3ccccc3)cc1)C(=O)NC1CC(C)(C)NC(C)(C)C1)c(C)n2C(=O)c1ccc(Cl)cc1` (centres unmarked) [PL-AC-205], the IC50 was 31.7 nM.

Test system: Human osteosarcoma MG63 cells
Assay: In vitro antitumor activity test (MTT), MG63
Type: cell-based
Conditions: MG-63, 24 h
Procedure: as §1, §2
Molecule `COc1ccc2c(c1)c(CC(=O)NC(Cc1ccc(-c3ccccc3)cc1)C(=O)NC1CC(C)(C)NC(C)(C)C1)c(C)n2C(=O)c1ccc(Cl)cc1` (centres unmarked) [PL-AC-205] has an IC50 of 25.7 nM.

Test system: human red blood cells
Assay: Detection of hemolytic activity
Type: cell-based
Conditions: hemolytic concentration, in nM
Procedure: 2-3 ml of human blood was drawn using an anticoagulant tube, thoroughly mixed, and kept at 4° C. for later use. 2 ml of blood was aspirated and added with 2-3 ml of PBS, followed by gently pipetting and centrifugation for 5 min at 1000 rpm, which was repeated 3-4 times. After the last centrifugation, PBS was aspirated, PBS was added to 40 ml (20 times the volume), and the number of blood cells at this time was 2×10^8 cells/ml. The red blood cell suspension was added to the plate (U-shaped 96-well plate), and 70 μl/well was used as a negative well. Only PBS was added to blank wells, 140 μl/well. 2 ml of the red blood cell suspension was centrifuged, PBS was discarded, 2 ml of pure water was added, mixed well, and 140 μl/well was used as a positive well. The diluted polypeptide solutions of different concentrations were added to the plate, 70 μl/well. Incubated at 37° C., 87 rpm, shaken for 2h, centrifuged for 5 min at 3000 rpm. The OD value measured by microplate reader: After centrifugation, 90 μl of supernatant was drawn and transferred to a flat-bottom 96-well plate, and the OD value at 578 nm was measured by microplate reader. ODtest-OD negative >0.1 (the first concentration that met the conditions was MHC).
`COc1ccc2c(c1)c(CC(=O)NC(Cc1ccc(-c3ccccc3)cc1)C(=O)NC1CC(C)(C)NC(C)(C)C1)c(C)n2C(=O)c1ccc(Cl)cc1` (centres unmarked) [PL-AC-205] showed an MHC of 4.2e+06 nM.

Same assay, conditions: human red blood cells, 37° C., 2h; first concentration with ODtest-OD negative >0.1
`COc1ccc2c(c1)c(CC(=O)NC(Cc1ccc(-c3ccccc3)cc1)C(=O)NC1CC(C)(C)NC(C)(C)C1)c(C)n2C(=O)c1ccc(Cl)cc1` (centres unmarked) [PL-AC-205] gave an MHC of 3000 µg/mL.

Test system: 13 human tumor cell lines
Assay: Average IC50 over the tumor cell lines (MTT)
Type: cell-based
Conditions: mean IC50 for each tumor, read-out: AverageIC50
Procedure: as §1, §2
The ratio of the hemolytic concentration MHC of the compound to the mean IC50 for each tumor was referred to as the therapeutic index (TI). The safety of the compound was evaluated by the therapeutic index. The higher the therapeutic index, the greater the safety range of the compound.
`COc1ccc2c(c1)c(CC(=O)NC(Cc1ccc(-c3ccccc3)cc1)C(=O)NC1CC(C)(C)NC(C)(C)C1)c(C)n2C(=O)c1ccc(Cl)cc1` (centres unmarked) [PL-AC-205] showed an IC50 of 25.3 nM.

Test system: not listed separately
Assay: Acute toxicity test of single administration to ICR mice
Conditions: mouse, in vivo, intravenous, single tail vein injection, observed 7 days
Procedure: ICR mice, 18-22 g, were raised in a common-grade animal room, fed with common feed, and ingested freely. The group distance and dose were determined after exploring the Dm and Dn of the compounds of the examples. Five concentrations of the compounds of the examples were formulated at the desired dose. The corresponding doses of drugs were injected into the tail vein according to body weight, and the blank control group was injected with normal saline. Immediately after administration, the performance and death of each animal were observed and recorded, and the possible toxic reaction or death of animals within 7 days after a single administration was observed and recorded.
Work on `COc1ccc2c(c1)c(CC(=O)NC(Cc1ccc(-c3ccccc3)cc1)C(=O)NC1CC(C)(C)NC(C)(C)C1)c(C)n2C(=O)c1ccc(Cl)cc1` (centres unmarked) [PL-AC-205] yielded an LD50 at 7 days of 35.6 mg/kg.

Test system: Bel-7402 liver tumors
Assay: Transplanted tumor in nude mice, intraperitoneal, Bel-7402
Type: in vivo, BALB/c nude mice
Conditions: Bel-7402, 5 mg/kg i.p. once every 3 days, 8 administrations
Procedure: (§3) BALB/c nude mice were used to inoculate Bel-7402, HepG-2 and SK-hep1 liver tumors according to the transplanted tumor research method under aseptic operation, and the cell density was not less than 5×10^6/ml, 0.2 ml was inoculated subcutaneously in the axilla of the right hind limb of each mouse. After the cells were inoculated, the cells were administered intraperitoneally (concentration: 5 mg/kg), once every 3 days, for a total of 8 administrations. After the 2nd day of drug withdrawal, all tumor-bearing mice were sacrificed, and their body weight, tumor weight and tumor inhibition were weighed.
With `COc1ccc2c(c1)c(CC(=O)NC(Cc1ccc(-c3ccccc3)cc1)C(=O)NC1CC(C)(C)NC(C)(C)C1)c(C)n2C(=O)c1ccc(Cl)cc1` (centres unmarked) [PL-AC-205] the Tumor inhibition rate was “^ΔΔ69.4** %” and the Tumor weight was 242.8 ± 6.6 mg.

Same assay, conditions: Bel-7402 tumor-bearing BALB/c mice, 5 mg/kg i.p. once every 3 days, 8 administrations
In the case of `COc1ccc2c(c1)c(CC(=O)NC(Cc1ccc(-c3ccccc3)cc1)C(=O)NC1CC(C)(C)NC(C)(C)C1)c(C)n2C(=O)c1ccc(Cl)cc1` (centres unmarked) [PL-AC-205], the “Body Weight After administration” value is reported as 23.9 ± 0.6 g.

Test system: HepG-2 liver tumors
Assay: Transplanted tumor in nude mice, intraperitoneal, HepG-2
Type: in vivo, BALB/c nude mice
Conditions: HepG-2, 5 mg/kg i.p. once every 3 days, 8 administrations
Procedure: as §3
In the case of `COc1ccc2c(c1)c(CC(=O)NC(Cc1ccc(-c3ccccc3)cc1)C(=O)NC1CC(C)(C)NC(C)(C)C1)c(C)n2C(=O)c1ccc(Cl)cc1` (centres unmarked) [PL-AC-205], the Tumor inhibition rate is reported as “^Δ71.8** %” and the Tumor weight is reported as 465.6 ± 5.9 mg.

Same assay, conditions: HepG-2 tumor-bearing BALB/c mice, 5 mg/kg i.p. once every 3 days, 8 administrations
With `COc1ccc2c(c1)c(CC(=O)NC(Cc1ccc(-c3ccccc3)cc1)C(=O)NC1CC(C)(C)NC(C)(C)C1)c(C)n2C(=O)c1ccc(Cl)cc1` (centres unmarked) [PL-AC-205] the “Body Weight After administration” value was 21.9 ± 1.2 g.

Test system: SK-hep1 liver tumors
Assay: Transplanted tumor in nude mice, intraperitoneal, SK-hep1
Type: in vivo, BALB/c nude mice
Conditions: SK-hep1, 5 mg/kg i.p. once every 3 days, 8 administrations
Procedure: as §3
In the case of `COc1ccc2c(c1)c(CC(=O)NC(Cc1ccc(-c3ccccc3)cc1)C(=O)NC1CC(C)(C)NC(C)(C)C1)c(C)n2C(=O)c1ccc(Cl)cc1` (centres unmarked) [PL-AC-205], the Tumor inhibition rate is reported as 62.0** % and the Tumor weight is reported as 425.8 ± 10.7 mg.

Same assay, conditions: SK-hep1 tumor-bearing BALB/c mice, 5 mg/kg i.p. once every 3 days, 8 administrations
In the case of `COc1ccc2c(c1)c(CC(=O)NC(Cc1ccc(-c3ccccc3)cc1)C(=O)NC1CC(C)(C)NC(C)(C)C1)c(C)n2C(=O)c1ccc(Cl)cc1` (centres unmarked) [PL-AC-205], the “Body Weight After administration” value is reported as 22.2 ± 0.9 g.
